{"source": "patent US9744244B2", "about": "“Amphipathic peptide” (The Queen's University of Belfast, priority 2012, dated 2017)", "key": {"C57/BL6 mice": {"system": "C57/BL6 mice", "assay": "Immune response on repeated administration (ELISA, Greiss test on serum)", "assay_type": "in vivo", "details": "first week, compared with PEI only"}, "ZR-75-1 cells": {"system": "ZR-75-1 cells", "assay": "Transfection of ZR-75-1 cells, GFP expression by flow cytometry", "assay_type": "cell-based", "method": "In order to test the RALA in vitro, small scale transfections were performed carried out. 5×10^4 cells were seeded onto each well of a 96 well plate and the cells incubated under with complete medium standard conditions for 48 hours. The medium was subsequently removed from the plates and 100 μl of transfection medium (Optimem Invitrogen, UK) was added to each well. Cells were incubated for 2 hours at 37° C. and 5% CO2 standard conditions. In the meanwhile complexes were made up using 1 μg of plasmid DNA with the RALA vector and added to the cells when the two hours had passed. 100 μl of the each N:P ratio were added to each well of the cells. Cells were then incubated for a further 4 hours under standard conditions and the medium with RPMI-1640 supplemented with +10% FCS. (FIG. 4, 31 (+Chloroquine), 32 (+Bafilomycin), 33 (+KALA NPs), 34 (+Lipofectamine), 35).\nZR-75-1 & PC-3 cells that were transfected with RALA/pEGFP-N1 complexes were trypsinised and washed twice with 2% formaldehyde in phosphate buffered saline. The expression of green fluorescent protein was measured by flow cytometry using FACS calibur system (BD Bioscience, UK). The data was analysed using the Flo-Jo software program and fluorescent intensity is reported at 4% gating. (FIG. 7b, 11, 31, 32, 33, 34, 35, 57 (+RAT/pEGFP-N1))."}, "[1]": {"assay": "Nanoparticle size and charge analysis (DLS, Laser Doppler Velocimetry, Malvern Zetasizer)", "assay_type": "physicochemical", "method": "In order to obtain particle size and charge distributions the mean hydrodynamic particle size measurements RALA complexes were performed using Dynamic Light Scattering (DLS). Dynamic Light Scattering is based upon the principle that when particles are illuminated with a laser, due to Brownian motion there will be scattering of the light. The intensity of the scattered light fluctuates as a result of this Brownian motion caused by bombardment of the particles by solvent molecules. A correlation curve reflecting the decay rate is generated based on fluctuations of the scattered light where a slower correlation decay rate represents a slower moving particle. Based on the Stokes-Einstein equation larger particles move more slowly and, thus, the correlation function can be used to determine the size distribution of the particles. dynamic light scattering (DLS) was used.\nSurface charge measurements of the RALA nanoparticles were determined by Laser Doppler Velocimetry. The zeta potential of the particles was measured using disposable foltable zeta cuvettes. […]\nThe nanoparticles were made up at an appropriate range of N:P ratios with at least using 2 μg of DNA in each sample. Nanoparticles were analysed using either and analysis was completed on either the Zetasizer-HS3000 (Malvern Instruments) or the Zetasizer-Nano instrument with DTS software (Malvern Instruments, UK). […]"}}, "note": "Where no end group is shown, it is not given here.", "data": [{"sequence": "WEARLARALARALARHLARALARALRACEA [RALA]", "values": [{"measurement": "initial TNFα response", "setting": "C57/BL6 mice", "result": "significantly lower initial response of TNFα than the PEI only treated animals"}]}, {"sequence": "WEARLARALARALARHLRACEA (22mer protein sequence (Table 2)) [Peptide 22mer, comparative peptide]", "values": [{"measurement": "ability to transfect cells", "setting": "ZR-75-1 cells", "result": "unable to condense DNA into nanoparticles and transfect cells"}, {"measurement": "ability to condense DNA into nanoparticles", "setting": "[1]", "result": "unable to condense DNA into nanoparticles"}]}]}
